US10669272B2, “Substituted naphthyridinone compounds useful as T cell activators” (BRISTOL-MYERS SQUIBB COMPANY, priority 2018, dated 2020)
Read-outs that look alike come from different tables or passages of the source.

Assays:
human DGKα = target: T1, human DGKα (Homo sapiens, UniProt P23743); assay: DGKα LIPGLO assay (extruded liposome substrate), in vitro DGK inhibition; type: biochemical; conditions: read-out: DGKa LIPGLO IC50
T1 construct: TVMV protease cleavage site (C); Hexa-His (C); made in house; host or cells: Sf9 insect cells (baculovirus, Bac-to-Bac)
T1 sequence (P23743 with tags, fused parts or gaps): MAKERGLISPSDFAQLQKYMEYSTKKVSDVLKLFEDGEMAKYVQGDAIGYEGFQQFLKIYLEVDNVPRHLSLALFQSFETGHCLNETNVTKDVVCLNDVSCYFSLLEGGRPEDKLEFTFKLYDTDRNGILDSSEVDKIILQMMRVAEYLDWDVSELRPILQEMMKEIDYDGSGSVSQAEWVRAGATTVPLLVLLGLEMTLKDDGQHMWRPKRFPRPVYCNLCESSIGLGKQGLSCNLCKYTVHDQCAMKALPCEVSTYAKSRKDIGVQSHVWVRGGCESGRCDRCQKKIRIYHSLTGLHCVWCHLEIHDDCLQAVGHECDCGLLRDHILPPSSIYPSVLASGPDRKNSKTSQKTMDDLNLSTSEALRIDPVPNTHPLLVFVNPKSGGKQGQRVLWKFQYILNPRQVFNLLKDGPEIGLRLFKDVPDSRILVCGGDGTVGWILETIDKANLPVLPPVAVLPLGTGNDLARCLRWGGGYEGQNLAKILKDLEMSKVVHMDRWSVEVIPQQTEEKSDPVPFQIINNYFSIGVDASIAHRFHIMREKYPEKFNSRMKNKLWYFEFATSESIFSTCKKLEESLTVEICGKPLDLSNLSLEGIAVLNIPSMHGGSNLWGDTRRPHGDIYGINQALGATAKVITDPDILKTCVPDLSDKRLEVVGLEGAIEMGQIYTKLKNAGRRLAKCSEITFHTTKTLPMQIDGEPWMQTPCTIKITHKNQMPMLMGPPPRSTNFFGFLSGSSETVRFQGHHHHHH

human DGKζ = target: T2, human DGKζ (Homo sapiens, UniProt Q13574); assay: DGKζ LIPGLO assay (extruded liposome substrate), in vitro DGK inhibition; type: biochemical; conditions: read-out: DGKz LIPGLO IC50
T2 construct: TVMV protease cleavage site (C); Hexa-His (C); made in house; host or cells: Sf9 insect cells (baculovirus, Bac-to-Bac)
T2 sequence (Q13574 with tags, fused parts or gaps isoform Q13574-4): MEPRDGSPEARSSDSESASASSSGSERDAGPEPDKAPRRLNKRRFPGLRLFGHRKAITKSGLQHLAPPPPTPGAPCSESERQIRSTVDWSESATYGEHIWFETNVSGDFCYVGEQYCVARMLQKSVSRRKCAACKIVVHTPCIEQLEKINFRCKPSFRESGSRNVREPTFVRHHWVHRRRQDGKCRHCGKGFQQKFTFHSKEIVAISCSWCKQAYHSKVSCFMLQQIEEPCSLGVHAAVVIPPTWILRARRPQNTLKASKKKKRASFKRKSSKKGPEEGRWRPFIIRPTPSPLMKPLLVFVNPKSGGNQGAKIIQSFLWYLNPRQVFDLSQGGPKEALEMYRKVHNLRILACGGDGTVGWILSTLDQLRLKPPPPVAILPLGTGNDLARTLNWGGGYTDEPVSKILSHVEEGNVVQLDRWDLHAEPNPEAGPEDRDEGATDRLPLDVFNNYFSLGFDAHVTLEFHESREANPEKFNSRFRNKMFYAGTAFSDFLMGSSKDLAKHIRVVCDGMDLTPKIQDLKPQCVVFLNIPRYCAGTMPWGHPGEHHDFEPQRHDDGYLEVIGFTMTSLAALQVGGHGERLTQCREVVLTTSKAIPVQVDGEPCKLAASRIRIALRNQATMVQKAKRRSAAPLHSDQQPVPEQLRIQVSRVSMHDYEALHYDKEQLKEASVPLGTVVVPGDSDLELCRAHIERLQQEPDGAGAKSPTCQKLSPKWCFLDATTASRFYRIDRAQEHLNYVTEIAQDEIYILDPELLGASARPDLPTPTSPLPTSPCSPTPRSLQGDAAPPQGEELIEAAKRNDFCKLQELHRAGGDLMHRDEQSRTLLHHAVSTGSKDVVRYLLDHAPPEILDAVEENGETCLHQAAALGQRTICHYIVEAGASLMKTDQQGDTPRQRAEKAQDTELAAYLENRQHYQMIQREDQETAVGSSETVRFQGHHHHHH

Human venous whole blood = assay: Human whole blood IFN-γ assay; type: cell-based; conditions: human whole blood, read-out: INFg Whole Blood Normalized Agonist EC50;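 further: blood from healthy donors exposed to compound for 1 h before stimulation with anti-CD3 and anti-CD28 at 1 µg/mL each, IFN-γ quantified in supernatant by AlphaLISA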
Method: Human Whole Blood IFN-γ Assay
Human venous whole blood (22.5 μL per well), obtained from healthy donors, was pre-treated with compounds for one hour at 37° C. in a humidified 95% air/5% CO2 incubator. The blood was stimulated with 2.5 μL anti-human CD3 and anti-CD28 mAb at a final concentration of 1 μg/mL each for 24 hours at 37° C. IFN-γ in the supernatants was measured using AlphLISA kit (Cat # AL217).

[1] = Homo sapiens, 24 h, normalized to 3 μM reference compound with anti-CD3 plus anti-CD28 as 100% activation
[2] = normalized to 3 μM reference compound with anti-CD3 plus anti-CD28 as 100% activation
[3] = anti-CD3 plus anti-CD28, 24 hours, 3 μM reference compound = 100% activation
[4] = Homo sapiens, 24 h, anti-CD3 plus anti-CD28, 24 hours, 3 μM reference compound = 100% activation

Row | Structure (SMILES) | IC50 (human DGKα; liposome (LIPGLO) assay) | IC50 (human DGKζ; liposome (LIPGLO) assay) | EC50 (Human venous whole blood; [1]) | EC50 (Human venous whole blood; [2]) | IC50 (human DGKα; DGKα liposome (LIPGLO) assay) | IC50 (human DGKζ; DGKζ liposome (LIPGLO) assay) | EC50 (Human venous whole blood; [3]) | EC50 (Human venous whole blood; [4])
1 | CC[C@H]1CN(C(c2ccc(F)cc2)c2ccc(F)cc2)[C@H](C)CN1c1cc(=O)n(C)c2ccc(C#N)nc12 [Example 1118] | 400 nM | 580 nM | 360 nM | – | – | – | – | –
2 | CC[C@@H]1CN(c2cc(=O)n(C)c3ccc(C#N)nc23)[C@@H](C)CN1C(C)c1ccc(C2CC2)cc1F (single isomer, unassigned) [Example 1340] | 630 nM | 40 nM | – | 80 nM | – | – | – | –
3 | CC(C)c1nc(CN2C[C@H](C)N(c3cc(=O)n(C)c4ccc(C#N)nc34)C[C@H]2C)no1 [Example 1432] | 2100 nM | 7700 nM | 20000 nM | – | – | – | – | –
4 | C[C@@H]1CN(c2cc(=O)n(C)c3ccc(C#N)nc23)[C@@H](C)CN1C(CO)c1ccc(F)cc1 (single isomer, unassigned) [Example 558] | 10000 nM | 100000 nM | – | 15000 nM | – | – | – | –
5 | C[C@@H]1CN(c2c(C#N)c(=O)n(C)c3ccc(C#N)nc23)CCN1C(c1ccc(F)cc1)c1nccs1 (single isomer, unassigned) [Example 1024] | 440 nM | 2200 nM | 1200 nM | – | – | – | – | –
6 | CC[C@H]1CN(C(C)c2ccc(OC(F)F)cc2)[C@H](C)CN1c1cc(=O)n(C)c2ccc(C#N)nc12 (single isomer, unassigned) [Example 1145] | 310 nM | 860 nM | – | 3300 nM | – | – | – | –
7 | Cc1ccc(C(c2ccc(F)cn2)N2CCN(c3c(C#N)c(=O)n(C)c4ccc(C#N)nc34)C[C@H]2C)cc1 (stereo partly drawn) [Example 898] | – | – | – | – | 340 nM | 700 nM | 480 nM | –
8 | CC(C)Oc1ccc(C(C)N2C[C@H](C)N(c3cc(=O)n(C)c4ccc(C#N)nc34)C[C@H]2C)cn1 (single isomer, unassigned) [Example 1324] | 12000 nM | 140 nM | – | 690 nM | – | – | – | –
9 | C[C@@H]1CN(c2cc(=O)n(C)c3ccc(C#N)nc23)[C@@H](C)CN1C(c1ccc(F)cc1)c1cocn1 (single isomer, unassigned) [Example 709] | 670 nM | 14000 nM | – | 2100 nM | – | – | – | –
10 | COC(=O)NC[C@@H]1CN(c2cc(=O)n(C)c3ccc(C#N)nc23)[C@@H](C)CN1C(c1ccc(F)cc1)c1ccc(F)cc1 [Example 1166, methyl (((2R,5S)-1-(bis(4-fluorophenyl)methyl)-4-(6-cyano-1-methyl-2-oxo-1,2-dihydro-1,5-naphthyridin-4-yl)-5-methylpiperazin-2-yl)methyl)carbamate] | 1800 nM | 370 nM | 350 nM | – | – | – | – | –
11 | C[C@@H]1CN(c2c(C#N)c(=O)n(C)c3ccc(C#N)nc23)CCN1C(c1ccc(F)cc1)c1cccc(F)c1 (stereo partly drawn) [Example 880] | – | – | – | – | 6500 nM | 2500 nM | 20000 nM | –
12 | CC(c1ccc(C#N)cc1F)N1C[C@H](C)N(c2cc(=O)n(C)c3ccc(C#N)nc23)C[C@H]1C (single isomer, unassigned) [Example 1227] | 51 nM | 110 nM | – | 670 nM | – | – | – | –
13 | COc1ccc(C(C)N2C[C@H](C)N(c3c(C#N)c(=O)n(C)c4ccc(C#N)nc34)C[C@H]2C)nc1 (single isomer, unassigned) [Example 799] | – | – | – | – | 860 nM | 9900 nM | 20000 nM | –
14 | C[C@@H]1CN(c2cc(=O)n(C)c3ccc(C#N)nc23)[C@@H](C)CN1C(c1ccc(O)cc1)C(F)(F)F (stereo partly drawn) [Example 626] | 1700 nM | 7900 nM | 2500 nM | – | – | – | – | –
15 | Cc1cc(C(c2ccc(F)cc2)N2C[C@H](C)N(c3c(C#N)c(=O)n(C)c4ccc(C#N)nc34)C[C@H]2C)no1 (single isomer, unassigned) [Example 864] | – | – | – | – | 170 nM | 1000 nM | – | 6500 nM
16 | CC(c1ccc(OC(F)(F)F)c(F)c1)N1C[C@H](C)N(c2cc(=O)n(C)c3ccc(C#N)nc23)C[C@H]1C (single isomer, unassigned) [Example 1204] | 120 nM | 470 nM | – | 540 nM | – | – | – | –
17 | COc1cc(F)c(C(C)N2C[C@H](C)N(c3cc(=O)n(C)c4ccc(C#N)nc34)C[C@H]2C)c(F)c1 (stereo partly drawn) [Example 1242] | 200 nM | 19 nM | 180 nM | – | – | – | – | –

Row | Structure (SMILES) | IC50 (human DGKα; liposome (LIPGLO) assay) | IC50 (human DGKζ; liposome (LIPGLO) assay) | EC50 (Human venous whole blood; [1]) | EC50 (Human venous whole blood; [2]) | IC50 (human DGKα; DGKα liposome (LIPGLO) assay) | IC50 (human DGKζ; DGKζ liposome (LIPGLO) assay) | EC50 (Human venous whole blood; [3]) | EC50 (Human venous whole blood; [4])
18 | CC[C@@H]1CN(c2cc(=O)n(C)c3ccc(C#N)nc23)[C@@H](C)CN1C(c1ccc(F)cc1)c1cccc(C(F)(F)F)n1 (stereo partly drawn) [Example 1112] | 1200 nM | 150 nM | – | 170 nM | – | – | – | –
19 | C[C@@H]1CN(c2c(C#N)c(=O)n(C)c3ccc(C#N)nc23)[C@@H](C)CN1C(c1ccc(F)cc1)c1ccns1 (single isomer, unassigned) [Example 854] | – | – | – | – | 5100 nM | 1900 nM | – | 10000 nM
20 | CC[C@@H]1CN(c2cc(=O)n(C)c3ccc(C#N)nc23)[C@@H](C)CN1C(c1ccc(F)cc1)c1ccon1 (single isomer, unassigned) [Example 1115] | 84 nM | 1400 nM | – | 800 nM | – | – | – | –
21 | CC(c1ccc(F)c(Cl)c1)N1C[C@H](C)N(c2cc(=O)n(C)c3ccc(C#N)nc23)C[C@H]1C (single isomer, unassigned) [Example 1257] | 7900 nM | 1100 nM | – | 1700 nM | – | – | – | –
22 | C[C@@H]1CN(c2cc(=O)n(C)c3ccc(C#N)nc23)[C@@H](C)CN1Cc1ccc(P(C)(C)=O)cc1 [Example 1289] | 51000 nM | 130000 nM | 20000 nM | – | – | – | – | –
23 | C[C@@H]1CN(c2cc(=O)n(C)c3ccc(C#N)nc23)[C@@H](C)CN1Cc1coc(-c2cccs2)n1 [Example 1434] | 2100 nM | 960 nM | 21000 nM | – | – | – | – | –
24 | CC(c1ccccc1C(F)(F)F)N1CCN(c2c(C#N)c(=O)n(C)c3ccc(C#N)nc23)C[C@H]1C (single isomer, unassigned) [Example 966] | – | – | – | – | 61000 nM | > 250000 nM | – | 20000 nM
25 | CCc1ccccc1C(c1ccc(F)cc1)N1CCN(c2c(C#N)c(=O)n(C)c3ccc(C#N)nc23)C[C@H]1C (stereo partly drawn) [Example 877] | – | – | – | – | 5100 nM | 240 nM | 6000 nM | –
26 | C[C@@H]1CN(c2cc(=O)n(C)c3ccc(C#N)nc23)[C@@H](C)CN1C(c1ccc(F)cc1)c1ccc(P(C)(C)=O)cc1 (single isomer, unassigned) [Example 1292] | 8000 nM | 4100 nM | 12000 nM | – | – | – | – | –
27 | Cc1ccc(C(c2ccc(C#N)cc2)N2C[C@H](C)N(c3c(F)c(=O)n(C)c4ccc(C#N)nc34)C[C@H]2C)cc1 (stereo partly drawn) [Example 322, 8-((2S,5R)-4-((4-cyanophenyl)(p-tolyl)methyl)-2,5-dimethylpiperazin-1-yl)-7-fluoro-5-methyl-6-oxo-5,6-dihydro-1,5-naphthyridine-2-carbonitrile] | 2700 nM | 2200 nM | 2200 nM | – | – | – | – | –
28 | C[C@@H]1CN(c2cc(=O)n(C)c3ccc(C#N)nc23)[C@@H](C)CN1C(c1ccc(F)cc1)c1ccon1 (single isomer, unassigned) [Example 706] | 1300 nM | 12000 nM | – | 2900 nM | – | – | – | –
29 | CC(=O)N1CC(c2noc(C(c3ccc(F)cc3)N3C[C@H](C)N(c4cc(=O)n(C)c5ccc(C#N)nc45)C[C@H]3C)n2)C1 (single isomer, unassigned) [Example 1296] | 2400 nM | 5000 nM | 20000 nM | – | – | – | – | –
30 | COc1ccc(C(C)N2C[C@H](C)N(c3cc(=O)n(C)c4ccc(C#N)nc34)C[C@H]2C)cc1C(F)(F)F (stereo partly drawn) [Example 1250] | 20000 nM | 1700 nM | – | 18000 nM | – | – | – | –
31 | CCC(c1ccc(OC(C)C)cc1)N1C[C@H](C)N(c2cc(=O)n(C)c3ccc(C#N)nc23)C[C@H]1C (single isomer, unassigned) [Example 1449] | 610 nM | 350 nM | – | 870 nM | – | – | – | –
32 | CC(c1cc(C2CC2)on1)N1C[C@H](C)N(c2cc(=O)n(C)c3ccc(C#N)nc23)C[C@H]1C (single isomer, unassigned) [Example 1282] | 1400 nM | 2100 nM | – | 5200 nM | – | – | – | –
33 | CC(c1ccc(OC(F)(F)F)cc1)N1C[C@H](CO)N(c2cc(=O)n(C)c3ccc(C#N)nc23)C[C@H]1C (single isomer, unassigned) [Example 1420] | 820 nM | 1700 nM | – | 1700 nM | – | – | – | –
